Data as given in publication PMC12734371, “Synthesis, Anti-Tumour, and Antibacterial Activities of Monocarbonyl Curcumin Analogues of Piperidones” (International Journal of Molecular Sciences, 2025).
In brackets after ≈: the same amount, converted by molar mass. Entries after “also recorded” stand apart in the source; their conditions may differ. Read-outs that look alike come from different tables or passages of the source.

Columns and labels:
A549 cells [1] = assay: Cell morphology by inverted microscope; format: cell-based, human; settings: 5 μmol/L, 24 h
Procedure: The cells were inoculated in a 6-well plate, and about 1 × 10^6 A549 cells in the logarithmic growth phase were inoculated in each well. After the cells were cultured in a constant temperature incubator for 24 h, the old medium was discarded, and five kinds of piperidone monocarbonyl curcumin analogue solution (5, 10, and 20 μmol/L), curcumin (10, 20, and 40 μmol/L), and 0.9% DMSO were added as the blank control group for 24 h, and then the cell morphology was observed by inverted microscope (200×).

L02 cells = assay: MTT assay, toxicity to human normal liver cells; format: cell-based; settings: 24 h, mean ± s, n = 3
Procedure: The cells were passaged to the fourth generation of L02 cells, and the cell suspension containing about 5 × 10^3 cells was added to each well of the 96-well plate and cultured in a cell culture incubator for 24 h. The old medium was discarded, and different concentrations of liquid medicine (6 porous and 3 plates for each concentration) were added and incubated for 24 h. The old medium was discarded, 10% of 5 mg/mL MTT working solution was added in the dark, and the cells were incubated in a cell incubator for 4 h. The old medium was discarded, 100 μL DMSO was added to each well, and 100 RPM was oscillated on an air shaker for 10 min. The OD value was measured at 490 nm with a multifunctional microplate reader. According to the OD value, the inhibition rate of different piperidone monocarbonyl curcumin analogues on L02 cells was calculated according to Formula (1), and IC50 was calculated by Graph Pad Prism 8.0.

[2] = system: ERK (extracellular regulated protein kinases); assay: Western blot, ERK level in A549 cells; format: cell-based, human; settings: 10, 5, 2.5 μmol/L, 24 h
Procedure: (§1) A549 cells in logarithmic growth phase were seeded in 6-well plates at 1 × 10^6 cells/mL per well. The cells were cultured overnight in an incubator. Different concentrations of drug-containing medium of 2,5-2Cl, 2Br-5Cl, 2-Cl, 2-F, benzaldehyde ([…]), curcumin (20 μmol/L), and cisplatin (30 μmol/L) were added, and the blank control […] The RIPA cell lysis buffer containing protease inhibitors was added to the Petri dish to collect the proteins of each experimental group, and the supernatant was collected as a protein sample after ultrasonic centrifugation. Protein quantification was performed by the BCA method. A total of 20 μg protein was separated by 10% SDS-PAGE, and then the protein was transferred to a PVDF membrane. The membrane was blocked with 5% skim milk for 1 h, and the corresponding primary antibody was incubated at 4 °C overnight. After washing the membrane three times with TBST, the bands were incubated with the corresponding secondary antibodies at room temperature for 1 h. After cleaning the membrane with TBST 3 times, the darkroom was developed with ECL luminescence. Using GAPDH as an internal reference, the protein bands were analyzed by ImageJ 1.8.0.

AKT (protein kinase B) = assay: Western blot, AKT level in A549 cells; format: cell-based, human; settings: 10, 5, 2.5 μmol/L, 24 h
Procedure: as §1

A549 cells [3] = assay: Cell wound scratch assay (migration); format: cell-based, human; settings: 6 h; high, medium, and low concentrations
Procedure: A549 cells in logarithmic phase were digested with 0.25% trypsin and blown to single cell suspension with a dropper. The cell density was adjusted to 5 × 10^5 cells/mL. The cells were inoculated on 6-well plates, 2 mL per well, and cultured in a cell incubator at 37 °C, 5% CO2, and saturated humidity for 24 h until the gaps were basically fused. A 10 μL micro pipette tip was used to scratch vertically in a 6-well plate. After washing with PBS solution 3 times, the drug-containing medium was added, 2 mL per well, and three wells were set in each group. The culture plates were placed in a 5% CO2 incubator at 37 °C for 6 h and 24 h and observed and photographed with an inverted fluorescence microscope. The images were obtained by NIS Elements Viewer 4.2.0, and the scratch area and width were calculated. The cell migration rate was calculated by Formula (2):[Cell migration rate (%) = (0 h scratch area − scratch area at different times)/0 h scratch area × 100%](2)

A549 cells [4] = assay: MTT assay, inhibition of tumour cell growth; format: cell-based, human; settings: 24 h, mean ± s
Procedure: (§2) The tumour cell suspension in logarithmic growth phase, containing about 5 × 10^3 cells, was taken and seeded onto a 96-well plate and gently shaken to disperse the cells evenly at the bottom of the plate. The cells were incubated in a constant temperature (37 °C) incubator for 24 h. The old medium was discarded, and 100 μL of the prepared working solution of piperidinone monocarbonyl curcumin analogues at different concentrations was added, and the cells were incubated in a constant temperature incubator for 24 h. Blank medium wells, blank cell wells, and 0.9% DMSO (highest content) wells were set up, with 6 multi-well and 3 multi-plates for each concentration. The discarded old medium was absorbed, and 100 μL of 10% 5 mg/mL MTT working solution was added to each well (operated away from light) and placed in a cell incubator for further incubation for 4 h. The old medium was discarded, and 100 μL of DMSO was added to each well and shaken in an air shaker at 100 RPM for 10 min. The absorbance of the OD value was measured at 490 nm by a multifunctional microplate analyzer. According to Formula (1), the inhibition rates of different piperidones monocarbonyl curcumin analograms on 4 tumour cells were calculated, and IC50 was calculated by GraphPad Prism 8.0:Inhibition rate (%) = (OD blank cell group − OD administration group)/OD blank cell group(1)

MCF-7 cells = assay: MTT assay, inhibition of tumour cell growth; format: cell-based, human; settings: 24 h, mean ± s, n = 3
Procedure: as §2

HepG2 cells = assay: MTT assay, inhibition of tumour cell growth; format: cell-based, human; settings: 24 h, mean ± s, n = 3
Procedure: as §2

Hela cells = assay: MTT assay, inhibition of tumour cell growth; format: cell-based, human; settings: 24 h, mean ± s, n = 3
Procedure: as §2

A549 cells [5] = assay: Flow cytometry apoptosis (Annexin V/PI); format: cell-based, human; settings: 24 h; 5, 2.5, 1.25 μmol/L
Procedure: The A549 cells in logarithmic growth phase were inoculated in 6-well plates at 1 × 10^6 cells. After resting in the incubator for 24 h, the cells were treated with different concentrations of drugs. The blank control group was added with the medium with the highest concentration of DMSO. After 24 h of culture, cells were collected, washed with PBS, transferred to a flow tube, and resuspended with 100 μL of 1 × Annexin V conjugate. Add 4 μL YF4/88-Annexin N and 5 μL PI working solution. The cells were incubated in the dark at room temperature for 10 min, transferred to a flow cytometer tube, added with 200 μL of 1 × Annexin V conjugate, and immediately detected by flow cytometry.

MRSA [6] = assay: AGAR plate zone of inhibition test (filter paper); format: cell-based, methicillin-resistant Staphylococcus aureus; settings: 160 μmol/L, 6 mm filter paper, 16 h, mean ± s; for zone of inhibition at 160 µM: Staphylococcus aureus, n = 3, read-out: Diameter of Bacteriostatic Zone
Procedure: Based on the results of previous experiments, the promising compounds were selected, and the size of the inhibition zone at 160 μmol/L was determined. The specific operation was as follows: The nutrient agar medium, after high temperature sterilization, was poured into about 20 mL per 9 cm plate in an ultra-clean bench and naturally cooled and solidified. Each plate was evenly coated with 100 μL MRSA bacterial suspension. The filter paper of 6 mm diameter soaked in the drug solution was dried by flame evaporation, and four tablets were placed in parallel into each plate, cultured in a constant temperature incubator at 37 °C for 16 h, and the size of the inhibition zone was measured.

A549 cells [7] = assay: CCK-8 growth inhibition (dose and time action curves); format: cell-based, human; settings: different concentrations, 4-72 h
Procedure: A549 cells in the logarithmic growth phase and in a good growth state were collected. After routine digestion and centrifugation, the cells were diluted with DMEM low-glucose complete medium, suspended in a single cell state, and inoculated in 96-well plates. Each well was inoculated with 100 μL cell suspension containing 5 × 10^3 cells. The 96-well plate was shaken to disperse the cells evenly at the bottom of the cell orifice plate, and the cells were cultured in the cell incubator for 24 h. The old medium was discarded, complete medium containing different concentrations of liquid medicine was added, and the culture continued in the cell culture incubator. At 4, 6, 12, 24, 48, and 72 h, the old medium was discarded and 100 μL of medium containing 10% CCK-8 was added. The medium was placed in the cell incubator and continued to incubate for 2 h. The OD value was measured at 450 nm with an enzyme calibration and the inhibition rate of different compounds at different concentrations was calculated. GraphPad Prism 8.0 was used to plot the inhibition rate of cell growth at different concentrations of the five major compounds. The drug duration curves were plotted with time as the X-axis and inhibition rate as the Y-axis.

MRSA [8] = assay: Broth microdilution inhibition test and MIC; format: cell-based, methicillin-resistant Staphylococcus aureus; settings: for MIC: broth microdilution
Procedure: Then, the MIC values of 100% compounds at the maximum inhibitory concentration were obtained by the broth microdilution method. The specific experiments are as follows: First, in the 96-well plate, add 100 μL of compound working solution from column 2 to column 8, with concentrations decreasing from high to low, repeating each concentration 6 times. Add 100 μL of NB nutrient broth containing 1% DMSO to column 9, and 100 μL of blank NB nutrient broth to columns 10 and 11. Then, add 10 μL of bacterial suspension to each well from columns 2 to 10. Place the 96-well plate in a 37 °C incubator for 16 h at 100 rpm and measure the absorbance at 600 nm by microplate reader. Columns 2 to 9 represent the drug treatment group, column 10 is the negative control group, and column 11 is the blank control group. The minimum concentration that inhibits bacterial growth is the MIC value of the compound: Bacterial inhibition rate (%) = (OD administration − OD control)/(ODcontrol − OD blank) (3)

MRSA [9] = assay: Time inhibition curve against MRSA; format: cell-based, methicillin-resistant Staphylococcus aureus; settings: 160 μmol/L and 80 μmol/L
Procedure: Based on the results of previous experiments, the promising compounds were selected. According to the administration method under ‘2.3.2’, the absorbance values of the promising compounds at 600 nm at different concentrations of bacteria at 4, 14, 18, and 24 h were measured by a microplate reader, and the inhibitory effect of the compounds on MRSA at different time points was calculated. The time inhibition curve of the compound against MRSA was made with the abscissa as the time and the ordinate as the bacterial inhibition rate.

Compound | Cell morphology (A549 cells [1]) | IC50 (L02 cells) [µM] | ERK protein level vs control group [2] | Cell migration rate vs blank control (0.9% DMSO) (A549 cells [3]) | IC50 (A549 cells [4]; n = 3) [µM] | IC50 (MCF-7 cells) [µM] | IC50 (HepG2 cells) [µM] | IC50 (Hela cells) [µM] | zone of inhibition at 160 µM (MRSA [6]) [mm] | also measured
O=C1C(=Cc2cc(Cl)ccc2Cl)CNCC1=Cc1cc(Cl)ccc1Cl [2,5-2Cl] | most of the cells became round and loose | 48.6 ± 3.59 | significantly lower | no statistical difference | 2.87 ± 2.09 | 4.72 ± 1.48 | 9.66 ± 1.09 | 6.62 ± 2.1 |  | Expression level of AKT protein vs control group (AKT (protein kinase B)): most obvious; Apoptosis-inducing effect on A549 cells (A549 cells [5]): strongest
CC1(C)S[C@@H]2[C@H](NC(=O)Cc3ccccc3)C(=O)N2[C@H]1C(=O)O [Penicillin] |  |  |  |  |  |  |  |  | 8.67 ± 0.58 | 
3,5-Dibenzylidene-4-piperidone [Benzaldehyde] |  | 52.4 ± 1.89 |  | no statistical difference | 4.66 ± 2.39 | 5.88 ± 1.44 | 10.3 ± 1.88 | 12.4 ± 2.91 |  | Inhibition of A549 cell growth (CCK-8) (A549 cells [7]): weak at low concentrations; IC50 (A549 cells [4]; n = 3, listed as benzaldehyde): < 5 µM
O=C1C(=Cc2cc(Cl)ccc2Br)CNCC1=Cc1cc(Cl)ccc1Br [2Br-5Cl] | most of the cells became round and loose | 58.2 ± 2.79 | significantly lower; also recorded: most obvious | no statistical difference | 4.75 ± 1.51 | 6.36 ± 1.28 | 8.42 ± 1.99 | 6.24 ± 2.46 |  | 
O=C1C(=Cc2ccccc2Cl)CNCC1=Cc1ccccc1Cl [2-Cl] | most of the cells became round and loose | 70.5 ± 1.85 | significantly lower | no statistical difference | 4.81 ± 1.69 | 5.7 ± 1.21 | 8.53 ± 2.61 | 6.61 ± 1.93 |  | Diameter of Bacteriostatic Zone (MRSA [6]; n = 3): 14.67 ± 0.58 mm; Inhibition rate of MRSA (MRSA [8]; 60 μmol/L): less than 100%; Inhibition rate of MRSA (MRSA [8]; 70 μmol/L): 100%; Inhibition of MRSA (MRSA [8]; 160 μmol/L): 100%; MIC (MRSA [8]; MRSA): 70 µM (≈ 24.1 µg/mL); Inhibition rate of MRSA over time (MRSA [9]; 18 h): 100%; Inhibition rate of MRSA over time (MRSA [9]; 24 h): 87.02%
NC[C@H]1O[C@H](O[C@H]2[C@H](O)[C@@H](O[C@H]3O[C@H](CO)[C@@H](O)[C@H](N)[C@H]3O)[C@H](N)C[C@@H]2N)[C@H](N)C[C@@H]1O [Tobramycin, reference compound] |  |  |  |  |  |  |  |  | 10.7 ± 0.58 | inhibition at 70 µM (MRSA [8]; Staphylococcus aureus, MRSA, 70 μmol/L, read-out: Inhibition rate of MRSA): < 100%; inhibition at 80 µM (MRSA [8]; Staphylococcus aureus, MRSA, 80 μmol/L, read-out: Inhibition rate of MRSA): 100%; inhibition at 160 µM (MRSA [8]; Staphylococcus aureus, MRSA, 160 μmol/L): 100%; MIC (MRSA [8]; Staphylococcus aureus, MRSA, read-out: MIC): 80 µM (≈ 37.4 µg/mL)
